In ChEMBL document CHEMBL1201862, “PubChem BioAssay data set” (2004):
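The compound was tested at five concentrations on cells cultured in 96-well plates, with a 48-hour exposure period. GI50: concentration for 50% inhibition of growth.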 Activity calls are given as the source filed them. No stated cut-off is given here; in the data, active = GI50 up to about 1.1 µM and inactive = higher.

Experiments:
Assay in all cases: NCI-60 cell line screen, 48 h
DLD-1 = tested on: DLD-1
SK-MEL-5 = tested on: SK-MEL-5
OVCAR-3 = tested on: OVCAR-3
OVCAR-8 = tested on: OVCAR-8
HOP-18 = tested on: HOP-18
MOLT-4 = tested on: MOLT-4
U-251 = tested on: U-251
HCC 2998 = tested on: HCC 2998
HCT-15 = tested on: HCT-15
M19-MEL = tested on: M19-MEL
ACHN = tested on: ACHN
SF-268 = tested on: SF-268
UO-31 = tested on: UO-31
CAKI-1 = tested on: CAKI-1
HOP-92 = tested on: HOP-92
DMS-273 = tested on: DMS-273
HL-60 = tested on: HL-60
Malme-3M = tested on: Malme-3M
HT-29 = tested on: HT-29
NCI-H23 = tested on: NCI-H23
HOP-62 = tested on: HOP-62
EKVX = tested on: EKVX
OVCAR-5 = tested on: OVCAR-5
NCI-H460 = tested on: NCI-H460
RPMI-8226 = tested on: RPMI-8226
SK-OV-3 = tested on: SK-OV-3
NCI-H522 = tested on: NCI-H522
SF-539 = tested on: SF-539
SNB-19 = tested on: SNB-19
IGROV-1 = tested on: IGROV-1
COLO 205 = tested on: COLO 205
K562 = tested on: K562
SN12C = tested on: SN12C
DMS-114 = tested on: DMS-114
OVCAR-4 = tested on: OVCAR-4
SW-620 = tested on: SW-620
TK-10 = tested on: TK-10
RXF 631 = tested on: RXF 631
A549 = tested on: A549
UACC-257 = tested on: UACC-257
SK-MEL-28 = tested on: SK-MEL-28
LXFL 529 = tested on: LXFL 529
786-0 = tested on: 786-0
LOX IMVI = tested on: LOX IMVI
M14 = tested on: M14
RXF 393 = tested on: RXF 393
SK-MEL-2 = tested on: SK-MEL-2
KM12 = tested on: KM12
CCRF-CEM = tested on: CCRF-CEM
SNB-75 = tested on: SNB-75
SF-295 = tested on: SF-295
KM-20L2 = tested on: KM-20L2
UACC-62 = tested on: UACC-62
A498 = tested on: A498
SNB-78 = tested on: SNB-78
HCT-116 = tested on: HCT-116
NCI-H226 = tested on: NCI-H226

Q: For `CCC1=C(C)/C(=C/c2[nH]c(CBr)c(CC)c2C)N=C1CBr`, which GI50 (DLD-1) is on record?
A: 12.4 µM (inactive)

Q: What about the GI50 (SK-MEL-5) of the same compound?
A: 16.8 µM (inactive)

Q: What about the GI50 (OVCAR-3) of the same compound?
A: 16.1 µM (inactive)

Q: And the GI50 (OVCAR-8)?
A: 7.23 µM (inactive)

Q: What about the GI50 (HOP-18) of the same compound?
A: 11 µM (inactive)

Q: What about the GI50 (MOLT-4) of the same compound?
A: 5.81 µM (inactive)

Q: What about the GI50 (U-251) of the same compound?
A: 11.3 µM (inactive)

Q: And the GI50 (HCC 2998)?
A: 12.2 µM (inactive)

Q: What about the GI50 (HCT-15) of the same compound?
A: 8.71 µM

Q: What about the GI50 (M19-MEL) of the same compound?
A: 13.7 µM (inactive)

Q: And the GI50 (ACHN)?
A: > 10 µM (inactive)

Q: And the GI50 (SF-268)?
A: 13.7 µM (inactive)

Q: And the GI50 (UO-31)?
A: 3.52 µM (inactive)

Q: And the GI50 (CAKI-1)?
A: 10.2 µM (inactive)

Q: And the GI50 (HOP-92)?
A: 7.46 µM (inactive)

Q: What about the GI50 (DMS-273) of the same compound?
A: > 100 µM (inactive)

Q: And the GI50 (HL-60)?
A: 4.59 µM (inactive)

Q: And the GI50 (Malme-3M)?
A: 20.7 µM (inactive)

Q: What about the GI50 (HT-29) of the same compound?
A: 12.5 µM (inactive)

Q: And the GI50 (NCI-H23)?
A: 14.6 µM (inactive)

Q: And the GI50 (HOP-62)?
A: 15 µM (inactive)

Q: And the GI50 (EKVX)?
A: 21.7 µM (inactive)

Q: And the GI50 (OVCAR-5)?
A: > 10 µM (inactive)

Q: What about the GI50 (NCI-H460) of the same compound?
A: 19 µM (inactive)

Q: And the GI50 (RPMI-8226)?
A: 5.66 µM (inactive)

Q: And the GI50 (SK-OV-3)?
A: 19 µM (inactive)

Q: What about the GI50 (NCI-H522) of the same compound?
A: 2.81 µM (inactive)

Q: And the GI50 (SF-539)?
A: 18.7 µM (inactive)

Q: What about the GI50 (SNB-19) of the same compound?
A: 16.4 µM (inactive)

Q: What about the GI50 (IGROV-1) of the same compound?
A: 18.5 µM (inactive)

Q: What about the GI50 (COLO 205) of the same compound?
A: 11.3 µM (inactive)

Q: What about the GI50 (K562) of the same compound?
A: 8.22 µM (inactive)

Q: What about the GI50 (SN12C) of the same compound?
A: 10 µM (inactive)

Q: What about the GI50 (DMS-114) of the same compound?
A: 7.21 µM (inactive)

Q: And the GI50 (OVCAR-4)?
A: 13 µM (inactive)

Q: And the GI50 (SW-620)?
A: 12.2 µM (inactive)

Q: What about the GI50 (TK-10) of the same compound?
A: 18.4 µM (inactive)

Q: What about the GI50 (RXF 631) of the same compound?
A: > 100 µM (inactive)

Q: And the GI50 (A549)?
A: 18.4 µM (inactive)

Q: What about the GI50 (UACC-257) of the same compound?
A: > 10 µM (inactive)

Q: What about the GI50 (SK-MEL-28) of the same compound?
A: 15.6 µM (inactive)

Q: And the GI50 (LXFL 529)?
A: 4.43 µM (inactive)

Q: And the GI50 (786-0)?
A: 17 µM (inactive)

Q: What about the GI50 (LOX IMVI) of the same compound?
A: > 100 µM (inactive)

Q: What about the GI50 (M14) of the same compound?
A: 16.5 µM (inactive)

Q: What about the GI50 (RXF 393) of the same compound?
A: 12.1 µM (inactive)

Q: What about the GI50 (SK-MEL-2) of the same compound?
A: 22.2 µM (inactive)

Q: What about the GI50 (KM12) of the same compound?
A: 11.6 µM (inactive)

Q: What about the GI50 (CCRF-CEM) of the same compound?
A: 2.51 µM (inactive)

Q: What about the GI50 (SNB-75) of the same compound?
A: 29.6 µM (inactive)

Q: And the GI50 (SF-295)?
A: 20.9 µM (inactive)

Q: And the GI50 (KM-20L2)?
A: 11.4 µM (inactive)

Q: What about the GI50 (UACC-62) of the same compound?
A: 6.05 µM (inactive)

Q: How did the GI50 (A498) turn out when `O=C(Nc1ccccc1-c1nn(CN2CCNCC2)c(=S)n(CN2CCNCC2)c1=O)C(F)(F)F` was run?
A: 18.2 µM (inactive)

Q: And the GI50 (DLD-1)?
A: 16.5 µM (inactive)

Q: And the GI50 (SK-MEL-5)?
A: 17.3 µM (inactive)

Q: And the GI50 (OVCAR-3)?
A: 20.7 µM (inactive)

Q: What about the GI50 (OVCAR-8) of the same compound?
A: 20.6 µM (inactive)

Q: And the GI50 (HOP-18)?
A: 18.2 µM (inactive)

Q: What about the GI50 (MOLT-4) of the same compound?
A: 23 µM (inactive)

Q: And the GI50 (U-251)?
A: 16.9 µM (inactive)

Q: And the GI50 (HCC 2998)?
A: 19.1 µM (inactive)

Q: What about the GI50 (HCT-15) of the same compound?
A: 15.9 µM

Q: And the GI50 (M19-MEL)?
A: 17.9 µM (inactive)

Q: What about the GI50 (ACHN) of the same compound?
A: 25.3 µM (inactive)

Q: And the GI50 (SF-268)?
A: 21.4 µM (inactive)

Q: And the GI50 (UO-31)?
A: 13.6 µM (inactive)

Q: What about the GI50 (CAKI-1) of the same compound?
A: 23.9 µM (inactive)

Q: And the GI50 (HOP-92)?
A: 22 µM (inactive)

Q: What about the GI50 (DMS-273) of the same compound?
A: 18.1 µM (inactive)

Q: And the GI50 (HL-60)?
A: 16.4 µM (inactive)

Q: And the GI50 (Malme-3M)?
A: 17.9 µM (inactive)

Q: And the GI50 (HT-29)?
A: 23.4 µM (inactive)

Q: What about the GI50 (NCI-H23) of the same compound?
A: 17.9 µM (inactive)

Q: And the GI50 (HOP-62)?
A: 19.6 µM (inactive)

Q: And the GI50 (EKVX)?
A: 14.2 µM (inactive)

Q: And the GI50 (OVCAR-5)?
A: 22.9 µM (inactive)

Q: And the GI50 (NCI-H460)?
A: 20.5 µM (inactive)

Q: What about the GI50 (SK-OV-3) of the same compound?
A: 20 µM (inactive)

Q: And the GI50 (SF-539)?
A: 18.4 µM (inactive)

Q: And the GI50 (SNB-19)?
A: 21.6 µM (inactive)

Q: What about the GI50 (SNB-78) of the same compound?
A: 23 µM (inactive)

Q: What about the GI50 (HCT-116) of the same compound?
A: 17.8 µM (inactive)

Q: And the GI50 (IGROV-1)?
A: 22.3 µM (inactive)

Q: What about the GI50 (COLO 205) of the same compound?
A: 17.1 µM (inactive)

Q: And the GI50 (K562)?
A: 21.9 µM (inactive)

Q: And the GI50 (SN12C)?
A: 19.4 µM (inactive)

Q: And the GI50 (DMS-114)?
A: 19.1 µM (inactive)

Q: And the GI50 (NCI-H226)?
A: 17.2 µM (inactive)

Q: What about the GI50 (OVCAR-4) of the same compound?
A: 19.5 µM (inactive)

Q: What about the GI50 (SW-620) of the same compound?
A: 10.1 µM (inactive)

Q: What about the GI50 (TK-10) of the same compound?
A: 27.5 µM (inactive)

Q: And the GI50 (RXF 631)?
A: 20.7 µM (inactive)

Q: What about the GI50 (A549) of the same compound?
A: 22.3 µM (inactive)

Q: What about the GI50 (UACC-257) of the same compound?
A: 17.2 µM (inactive)

Q: What about the GI50 (SK-MEL-28) of the same compound?
A: 18.9 µM (inactive)

Q: And the GI50 (786-0)?
A: 18.7 µM (inactive)

Q: What about the GI50 (LOX IMVI) of the same compound?
A: 18.8 µM (inactive)

Q: And the GI50 (M14)?
A: 16.9 µM (inactive)

Q: What about the GI50 (RXF 393) of the same compound?
A: 16.3 µM (inactive)

Q: What about the GI50 (SK-MEL-2) of the same compound?
A: 19.4 µM (inactive)

Q: And the GI50 (KM12)?
A: 19.7 µM (inactive)

Q: And the GI50 (CCRF-CEM)?
A: 17.1 µM (inactive)

Q: What about the GI50 (SNB-75) of the same compound?
A: 22.6 µM (inactive)

Q: And the GI50 (SF-295)?
A: 29 µM (inactive)

Q: And the GI50 (UACC-62)?
A: 18.3 µM (inactive)
